Test system: SD rats
Assay: 2-week repeated oral dose toxicity study
Type: in vivo
Settings: for Abnormal gross findings of necropsy (changed animals / total) / Basophils / Body Weight (at necropsy) / Brain weight / CH / CHCM / Eosinophils / HDW / Heart weight / Hematocrit / Hemoglobin / LUC / Left adrenal weight / Left kidney weight / Left testis weight / Liver weight / Lung weight / Lympocytes / MCH / MCHC / MCV / MPV / Monocytes / Mortality (dead animals / total number of animals) / Neutrophils / Platelet / RBC / RDW / Rate body weight / brain / Rate body weight / heart / Rate body weight / left adrenal / Rate body weight / left kidney / Rate body weight / left testis / Rate body weight / liver / Rate body weight / lung / Rate body weight / right adrenal / Rate body weight / right kidney / Rate body weight / right testis / Rate body weight / spleen / Rate body weight / thymus / Retic / Right adrenal weight / Right kidney weight / Right testis weight / Spleen weight / Symptomatic signs / Thymus weight / WBC: 2 weeks
Experimental: KMS88009 was orally administered once a day by gavage for 14 consecutive days at dose level of 0 (vehicle), 100, 300 and 1,000 mg/kg (n = 5 per group). […] Organs were collected at necropsy; adrenal, kidney, thymus, spleen, heart, lung, liver, testis and brain. The absolute organ weights were measured and the organs-to-body weight ratios were calculated. Blood samples for hematological evaluation were collected from vein of animals under ether anesthesia. Food was withheld overnight before necropsy and blood collections. EDTA was used as an anticoagulant for hematology samples. White blood cell (WBC), red blood cell (RBC), hemoglobin concentration (HGB), hematocrit (HCT), mean corpuscular volume (MCV), mean corpuscular hemoglobin (MCH), mean corpuscular hemoglobin concentration (MCHC), cell hemoglobin concentration mean (CHCM), cell hemoglobin (CH), red cell distribution width (RDW), hemoglobin distribution width (HDW), platelet count (PLT), mean platelet volume (MPV) and reticulocyte were measured by a hematological autoanalyzer (ADVIA 120, Bayer, USA). To get the serum for biochemical analyses, blood samples in a separation tube were centrifuged at 4,000 rpm for 10 min on the day of necropsy. The serum was kept frozen at -70°C until analysis. Sodium citrate was used as an anticoagulant for biochemical analyses. Serum biochemical parameters including aspartate aminotransferase (AST), alanine aminotransferase (ALT), alkaline phosphatase (ALP), total bilirubin (T-Bil), albumin, total protein (TP), albumin/globulin ratio (A/G ratio), glucose, total cholesterol (CHO), triglyceride (TG), lactate dehydrogenase (LDH), creatine kinase (CK), blood urea nitrogen (BUN), creatinine (CRE), blood urea nitrogen/creatinine ratio (B/C ratio), Na^+, K^+ and Cl^- were evaluated by an autoanalyzer (Shimadzu CL-7200, Shimadzu Co., Japan).
All data for single and 2-week repeated oral dose toxicity studies were expressed as the mean ± SD Difference between control and treated groups were evaluated with one-way analysis of variance (ANOVA) followed by Dunnett's test. Value P<0.05 was taken as being statistically significant. Statistical analyses were performed using GraphPad Prism software (USA).

## COc1ccc2cc(C=Cc3ccc(N(C)C)cc3)oc2c1 [KMS88009, 6-methoxy-2-(4-dimethylaminostyryl) benzofuran]
SD rats, 2-week repeated oral administration
  no-observed-adverse-effect-level: over 1,000 mg/kg
Rats PO 100 mg/kg/day
  Abnormal gross findings of necropsy (changed animals / total): 0 / 5
  Basophils: 0.02 ± 0.01 x10^3/μL
  Body Weight (at necropsy): 316.188 ± 16.093 g
  Brain weight: 1.948 ± 0.032 g
  CH: 20.3 ± 0.4 pg
  CHCM: 34.0 ± 0.4 g/dL
  Eosinophils: 0.07 ± 0.08 x10^3/μL
  HDW: 2.22 ± 0.08 g/dL
  Heart weight: 1.067 ± 0.098 g
  Hematocrit: 43.2 ± 2.6%
  Hemoglobin: 14.3 ± 1.0 g/dL
  LUC: 0.03 ± 0.02 x10^3/μL
  Left adrenal weight: 0.027 ± 0.005 g
  Left kidney weight: 1.279 ± 0.083 g
  Left testis weight: 1.440 ± 0.114 g
  Liver weight: 10.988 ± 0.881 g
  Lung weight: 1.212 ± 0.077 g
  Lympocytes: 6.64 ± 1.79 x10^3/μL
  MCH: 19.8 ± 0.5 pg
  MCHC: 33.1 ± 0.5 g/dL
  MCV: 59.7 ± 1.3 fL
  MPV: 7.66 ± 0.2 fL
  Monocytes: 0.12 ± 0.03 x10^3/μL
  Mortality (dead animals / total number of animals): 0 / 5
  Neutrophils: 1.74 ± 0.68 x10^3/μL
  Platelet: 1283 ± 239 x10^3/μL
  RBC: 7.25 ± 0.46 x10^6/μL
  RDW: 12.0 ± 0.3%
  Rate body weight / brain: 0.617 ± 0.026%
  Rate body weight / heart: 0.337 ± 0.024%
  Rate body weight / left adrenal: 0.009 ± 0.002%
  Rate body weight / left kidney: 0.404 ± 0.009%
  Rate body weight / left testis: 0.456 ± 0.036%
  Rate body weight / liver: 3.473 ± 0.154%
  Rate body weight / lung: 0.384 ± 0.031%
  Rate body weight / right adrenal: 0.008 ± 0.001%
  Rate body weight / right kidney: 0.414 ± 0.026%
  Rate body weight / right testis: 0.459 ± 0.042%
  Rate body weight / spleen: 0.230 ± 0.048%
  Rate body weight / thymus: 0.205 ± 0.022%
  Retic: 324.8 ± 18.9 ^* x10^3/μL
  Right adrenal weight: 0.025 ± 0.002 g
  Right kidney weight: 1.310 ± 0.101 g
  Right testis weight: 1.450 ± 0.133 g
  Spleen weight: 0.731 ± 0.188 g
  Symptomatic signs: -
  Thymus weight: 0.649 ± 0.073 g
  WBC: 8.62 ± 1.70 x10^3/μL
Rats PO 100 mg/kg/day, day 1
  Body weight: 227.6 ± 7.8 g
Rats PO 100 mg/kg/day, day 4
  Body weight: 253.1 ± 7.0 g
Rats PO 100 mg/kg/day, day 8
  Body weight: 297.2 ± 9.3 g
Rats PO 100 mg/kg/day, day 11
  Body weight: 321.2 ± 13.1 g
Rats PO 100 mg/kg/day, day 14
  Body weight: 344.4 ± 17.1 g
Rats PO 300 mg/kg/day
  Abnormal gross findings of necropsy (changed animals / total): 0 / 5
  Basophils: 0.01 ± 0.01 x10^3/μL
  Body Weight (at necropsy): 312.382 ± 14.169 g
  Brain weight: 1.680 ± 0.211 g
  CH: 20.4 ± 0.7 pg
  CHCM: 34.2 ± 0.3 g/dL
  Eosinophils: 0.03 ± 0.01 x10^3/μL
  HDW: 2.28 ± 0.12 g/dL
  Heart weight: 1.002 ± 0.038 g
  Hematocrit: 41.4 ± 1.9%
  Hemoglobin: 13.9 ± 0.7 g/dL
  LUC: 0.02 ± 0.01 x10^3/μL
  Left adrenal weight: 0.026 ± 0.004 g
  Left kidney weight: 1.237 ± 0.082 g
  Left testis weight: 1.515 ± 0.189 g
  Liver weight: 10.601 ± 0.687 g
  Lung weight: 1.214 ± 0.128 g
  Lympocytes: 3.98 ± 0.96 x10^3/μL
  MCH: 20.0 ± 0.6 pg
  MCHC: 33.4 ± 0.4 g/dL
  MCV: 59.7 ± 1.5 fL
  MPV: 7.84 ± 0.4 fL
  Monocytes: 0.08 ± 0.02 x10^3/μL
  Mortality (dead animals / total number of animals): 0 / 5
  Neutrophils: 0.84 ± 0.21 x10^3/μL
  Platelet: 1309 ± 50 x10^3/μL
  RBC: 6.93 ± 0.26 x10^6/μL
  RDW: 11.9 ± 0.4%
  Rate body weight / brain: 0.537 ± 0.059%
  Rate body weight / heart: 0.321 ± 0.011%
  Rate body weight / left adrenal: 0.008 ± 0.001%
  Rate body weight / left kidney: 0.396 ± 0.020%
  Rate body weight / left testis: 0.487 ± 0.075%
  Rate body weight / liver: 3.393 ± 0.133%
  Rate body weight / lung: 0.389 ± 0.037%
  Rate body weight / right adrenal: 0.008 ± 0.001%
  Rate body weight / right kidney: 0.406 ± 0.008%
  Rate body weight / right testis: 0.455 ± 0.023%
  Rate body weight / spleen: 0.201 ± 0.037%
  Rate body weight / thymus: 0.196 ± 0.036%
  Retic: 277.8 ± 39.6 x10^3/μL
  Right adrenal weight: 0.025 ± 0.004 g
  Right kidney weight: 1.266 ± 0.035 g
  Right testis weight: 1.420 ± 0.086 g
  Spleen weight: 0.629 ± 0.130 g
  Symptomatic signs: -
  Thymus weight: 0.613 ± 0.115 g
  WBC: 4.95 ± 1.05 x10^3/μL
Rats PO 300 mg/kg/day, day 1
  Body weight: 227.8 ± 7.1 g
Rats PO 300 mg/kg/day, day 4
  Body weight: 250.5 ± 9.9 g
Rats PO 300 mg/kg/day, day 8
  Body weight: 294.2 ± 14.6 g

— PMC3997483, “Aminostyrylbenzofuran Directly Reduces Oligomeric Amyloid-β and Reverses Cognitive Deficits in Alzheimer Transgenic Mice” (PLoS ONE, 2014)
